Laboratory results reported in patent US8796470B2 (AbbVie Inc., priority 2010, dated 2014).

The compounds below were run against T1, human Cav2.2 (Homo sapiens, UniProt Q00975) (assay: Assessment of calcium channel activity using FLIPR (Ca2+ influx in IMR32 cells)). Settings: IMR32 cells endogenously expressing human Cav2.2, Calcium 4 dye, 60 minute pre-incubation, 2 μM nifedipine, depolarized with 80 mM KCl, 5 mM CaCl2.
T1 construct: IMR32 cells endogenously expressing human Cav2.2; endogenous in cells; host or cells: IMR32 cells (human neuroblastoma)
Format: cell-based
Procedure: (i) In Vitro Methods—Assessment of Calcium Channel Activity Using FLIPR:
IMR32 cells endogenously expressing human Cav2.2 were assayed for Ca^2+ influx using a no-wash calcium indicator dye (Calcium 4 dye: Molecular Probes) and FLIPR technology (Lubin, M. L.; Reitz, T. L.; Todd, M. J.; Flores, C. M.; Qin, N.; Xin, H. Assay and Drug Development Technologies 2006, 4(6), 689-694.). The IMR32 cells were maintained in MEM media containing 10% (v/v) FBS, 1% (v/v) antibiotic/antimitotic, 1% (v/v) sodium pyruvate and 1% (v/v) MEM NEAA. Following dissociation in 0.05% (v/v) trypsin/EDTA, cells were seeded into black 1×96-well plates (Corning Cellbind) at a density of 1−1.2×10^5 cells/well and incubated in the maintenance media above for 48 hours at 37° C. Immediately prior to performing the assay the media was removed and cells were loaded for 1.5 hours with 1×Calcium 4 dye prepared in HBSS (137 mM NaCl, 5.4 mM KCl, 0.25 mM Na2HPO4, 0.44 mM KH2PO4, 1.3 mM CaCl2, 1 mM MgSO4, 4.2 mM NaHCO3) containing HEPES pH 7.4 at room temperature. After dye loading and a subsequent 60 minute pre-incubation with compounds (full log dilutions from 10 μM to 0.1 nM) in the presence of 1.3 mM CaCl2 and 2 μM nifedipine to block endogenous L-type channels, the external Ca^2+ concentration was increased to 5 mM CaCl2 and the cells concomitantly depolarized with 80 mM KCl to assay channel activity. To determine the IC50 values, the percent inhibition of the compound at each concentration was determined relative to the activity in the absence of inhibitor, and data was fitted using non-linear regression sigmoidal dose response curve analysis with GraphPad Prism®.

T1 sequence (Q00975 whole entry): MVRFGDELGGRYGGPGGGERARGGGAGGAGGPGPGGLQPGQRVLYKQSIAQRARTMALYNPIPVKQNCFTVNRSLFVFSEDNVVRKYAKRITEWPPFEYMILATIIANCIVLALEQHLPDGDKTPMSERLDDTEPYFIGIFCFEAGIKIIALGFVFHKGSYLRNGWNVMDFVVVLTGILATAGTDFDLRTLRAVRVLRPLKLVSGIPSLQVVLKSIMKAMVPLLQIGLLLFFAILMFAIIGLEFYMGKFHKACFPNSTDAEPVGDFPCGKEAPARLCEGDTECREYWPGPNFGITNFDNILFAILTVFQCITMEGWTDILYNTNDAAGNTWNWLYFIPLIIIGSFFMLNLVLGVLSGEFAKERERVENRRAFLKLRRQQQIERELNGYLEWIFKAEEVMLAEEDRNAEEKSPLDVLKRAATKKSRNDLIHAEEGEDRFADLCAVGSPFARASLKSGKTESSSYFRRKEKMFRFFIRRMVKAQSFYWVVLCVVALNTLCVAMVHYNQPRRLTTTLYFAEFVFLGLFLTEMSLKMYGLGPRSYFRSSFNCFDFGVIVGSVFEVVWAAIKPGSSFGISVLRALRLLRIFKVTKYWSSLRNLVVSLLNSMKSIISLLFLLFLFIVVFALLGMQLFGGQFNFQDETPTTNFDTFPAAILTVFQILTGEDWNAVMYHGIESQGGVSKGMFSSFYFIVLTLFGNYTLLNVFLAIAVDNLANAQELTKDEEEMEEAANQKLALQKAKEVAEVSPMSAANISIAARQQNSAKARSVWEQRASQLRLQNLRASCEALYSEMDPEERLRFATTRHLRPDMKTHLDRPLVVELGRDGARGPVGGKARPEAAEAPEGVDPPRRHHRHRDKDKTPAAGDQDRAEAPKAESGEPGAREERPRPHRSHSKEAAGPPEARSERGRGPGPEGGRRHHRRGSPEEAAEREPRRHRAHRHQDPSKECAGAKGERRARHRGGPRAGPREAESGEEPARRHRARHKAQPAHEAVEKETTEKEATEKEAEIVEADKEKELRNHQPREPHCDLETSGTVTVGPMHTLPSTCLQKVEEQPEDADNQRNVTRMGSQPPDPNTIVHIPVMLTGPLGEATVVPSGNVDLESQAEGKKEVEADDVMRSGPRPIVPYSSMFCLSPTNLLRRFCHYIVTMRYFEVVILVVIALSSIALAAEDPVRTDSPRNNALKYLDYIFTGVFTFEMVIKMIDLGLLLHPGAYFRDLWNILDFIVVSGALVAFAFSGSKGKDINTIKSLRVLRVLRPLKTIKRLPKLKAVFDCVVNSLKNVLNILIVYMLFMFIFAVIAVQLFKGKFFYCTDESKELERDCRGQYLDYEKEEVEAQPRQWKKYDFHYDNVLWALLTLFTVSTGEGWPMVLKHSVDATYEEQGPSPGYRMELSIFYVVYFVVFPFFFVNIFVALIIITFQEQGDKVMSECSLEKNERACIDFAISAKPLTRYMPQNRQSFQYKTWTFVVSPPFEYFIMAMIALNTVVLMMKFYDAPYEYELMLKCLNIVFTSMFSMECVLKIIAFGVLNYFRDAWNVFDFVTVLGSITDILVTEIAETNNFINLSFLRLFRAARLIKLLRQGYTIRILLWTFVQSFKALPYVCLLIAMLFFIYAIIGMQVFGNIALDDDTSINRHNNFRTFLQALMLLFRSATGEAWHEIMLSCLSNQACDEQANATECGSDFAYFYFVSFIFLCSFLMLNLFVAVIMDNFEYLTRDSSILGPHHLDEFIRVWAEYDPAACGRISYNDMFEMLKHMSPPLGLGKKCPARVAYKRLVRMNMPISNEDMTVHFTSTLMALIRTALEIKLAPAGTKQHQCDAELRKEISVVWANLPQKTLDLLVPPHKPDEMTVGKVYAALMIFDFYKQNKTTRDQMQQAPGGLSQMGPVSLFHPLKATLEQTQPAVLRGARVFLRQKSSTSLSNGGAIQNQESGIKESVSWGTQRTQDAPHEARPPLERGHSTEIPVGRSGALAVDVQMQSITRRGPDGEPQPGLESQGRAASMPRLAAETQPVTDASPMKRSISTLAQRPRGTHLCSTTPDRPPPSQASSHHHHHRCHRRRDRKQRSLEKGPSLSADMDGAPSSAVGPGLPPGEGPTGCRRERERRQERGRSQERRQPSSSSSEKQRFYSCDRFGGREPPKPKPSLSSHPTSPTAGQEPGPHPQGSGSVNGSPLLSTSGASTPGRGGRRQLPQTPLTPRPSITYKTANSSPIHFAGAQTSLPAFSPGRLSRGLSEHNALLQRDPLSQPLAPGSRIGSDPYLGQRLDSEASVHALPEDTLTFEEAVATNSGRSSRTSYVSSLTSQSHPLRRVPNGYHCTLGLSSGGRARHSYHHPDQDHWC
T1 sequence (P54289 25-956 partner limits assumed): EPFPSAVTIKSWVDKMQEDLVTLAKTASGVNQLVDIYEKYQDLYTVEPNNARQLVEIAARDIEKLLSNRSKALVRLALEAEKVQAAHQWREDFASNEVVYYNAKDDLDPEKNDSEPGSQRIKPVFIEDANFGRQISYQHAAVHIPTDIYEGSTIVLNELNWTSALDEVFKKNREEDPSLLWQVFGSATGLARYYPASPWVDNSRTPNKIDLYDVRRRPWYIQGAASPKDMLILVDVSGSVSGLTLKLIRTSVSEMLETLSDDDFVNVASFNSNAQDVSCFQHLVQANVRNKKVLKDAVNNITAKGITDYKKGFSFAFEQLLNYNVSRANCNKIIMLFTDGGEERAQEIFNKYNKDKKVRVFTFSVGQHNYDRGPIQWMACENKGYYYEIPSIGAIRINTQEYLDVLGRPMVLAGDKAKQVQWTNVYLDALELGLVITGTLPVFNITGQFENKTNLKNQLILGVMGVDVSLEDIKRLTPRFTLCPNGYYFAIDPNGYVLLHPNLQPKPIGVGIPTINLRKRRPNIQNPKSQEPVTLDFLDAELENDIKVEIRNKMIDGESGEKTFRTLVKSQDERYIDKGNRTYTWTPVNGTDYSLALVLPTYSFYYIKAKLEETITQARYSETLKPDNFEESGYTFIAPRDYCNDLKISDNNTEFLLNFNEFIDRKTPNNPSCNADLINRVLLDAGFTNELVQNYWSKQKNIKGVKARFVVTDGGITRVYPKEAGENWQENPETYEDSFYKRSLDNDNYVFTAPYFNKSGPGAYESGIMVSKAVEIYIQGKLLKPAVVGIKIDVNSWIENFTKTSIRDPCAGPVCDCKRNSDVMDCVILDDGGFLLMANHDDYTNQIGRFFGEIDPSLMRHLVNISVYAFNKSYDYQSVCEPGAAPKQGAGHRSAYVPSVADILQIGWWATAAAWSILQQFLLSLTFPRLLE
T1 sequence (P54289 957-1103 partner limits assumed): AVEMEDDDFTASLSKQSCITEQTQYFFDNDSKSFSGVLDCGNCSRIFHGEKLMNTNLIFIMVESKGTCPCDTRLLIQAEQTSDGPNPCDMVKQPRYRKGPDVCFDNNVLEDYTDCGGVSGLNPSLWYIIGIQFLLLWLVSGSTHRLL
T1 sequence (P54284 whole entry partner): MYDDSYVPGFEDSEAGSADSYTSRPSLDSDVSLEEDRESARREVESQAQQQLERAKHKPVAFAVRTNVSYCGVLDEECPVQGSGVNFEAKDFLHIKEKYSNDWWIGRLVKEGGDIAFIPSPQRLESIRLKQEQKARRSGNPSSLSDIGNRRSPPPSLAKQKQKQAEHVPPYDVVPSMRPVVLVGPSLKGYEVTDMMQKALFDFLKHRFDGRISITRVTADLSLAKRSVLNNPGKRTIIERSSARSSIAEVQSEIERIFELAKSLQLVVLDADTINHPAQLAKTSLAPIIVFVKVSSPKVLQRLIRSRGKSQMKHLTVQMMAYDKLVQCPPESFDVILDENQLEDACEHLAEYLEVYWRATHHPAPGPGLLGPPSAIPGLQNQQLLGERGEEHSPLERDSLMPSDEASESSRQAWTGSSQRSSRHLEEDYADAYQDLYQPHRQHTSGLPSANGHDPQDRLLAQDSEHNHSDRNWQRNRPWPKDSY

Row | Compound | IC50 [µM]
1 | CO[C@H]1CC[C@@H]2CN(c3cccc(C(F)(F)F)n3)C[C@@H]21 [Example 40, (3aR,4S,6aS)-4-methoxy-2-[6-(trifluoromethyl)pyridin-2-yl]octahydrocyclopenta[c]pyrrole] | 3.37
2 | FC(F)(F)c1cccc(N2C[C@H]3CC[C@H](n4ccnc4-c4ccccc4)[C@H]3C2)n1 [Example 62, (3aR,4S,6aS)-4-(2-phenyl-1H-imidazol-1-yl)-2-[6-(trifluoromethyl)pyridin-2-yl]octahydrocyclopenta[c]pyrrole] | 1.03
3 | O=C1CC[C@@H]2CN(c3cccc(C(F)(F)F)n3)C[C@H]12 [Example 32, (3aR,6aS)-2-[6-(trifluoromethyl)pyridin-2-yl]hexahydrocyclopenta[c]pyrrol-4(1H)-one] | 21.4
4 | CC(C)[C@@]1(O)CC[C@@H]2CN(c3cccc(C(F)(F)F)n3)C[C@@H]21 [Example 34, (3aR,4S,6aS)-4-isopropyl-2-[6-(trifluoromethyl)pyridin-2-yl]octahydrocyclopenta[c]pyrrol-4-ol] | 3.05
5 | O[C@@H]1CC[C@@H]2CN(c3cccc(C(F)(F)F)n3)C[C@@H]21 [Example 30, (3aR,4R,6aS)-2-[6-(trifluoromethyl)pyridin-2-yl]octahydrocyclopenta[c]pyrrol-4-ol] | 15.8
6 | C=C1CC[C@@H]2CN(Cc3ccccc3)C[C@H]12 [Example 1, (3aS,6aS)-2-benzyl-4-methyleneoctahydrocyclopenta[c]pyrrole] | > 30
7 | Fc1cccc2ncn([C@H]3CC[C@@H]4CN(c5cccc(C(F)(F)F)n5)C[C@@H]43)c12 [Example 64, 7-fluoro-1-{(3aR,4S,6aS)-2-[6-(trifluoromethyl)pyridin-2-yl]octahydrocyclopenta[c]pyrrol-4-yl}-1H-benzimidazole] | 3.6
8 | C[C@]1(NC(=O)CCC(F)(F)F)CC[C@@H]2CN(c3cccc(C(F)(F)F)n3)C[C@@H]21 [Example 72, 4,4,4-trifluoro-N-{(3aR,4S,6aS)-4-methyl-2-[6-(trifluoromethyl)pyridin-2-yl]octahydrocyclopenta[c]pyrrol-4-yl}butanamide] | 1.15
9 | CC(c1cccc(F)c1)[C@@]1(O)CC[C@@H]2CN(c3cccc(C(F)(F)F)n3)C[C@@H]21 (stereo partly drawn) [Example 38, (3aR,4S,6aS)-4-[1-(3-fluorophenyl)ethyl]-2-[6-(trifluoromethyl)pyridin-2-yl]octahydrocyclopenta[c]pyrrol-4-ol] | 6.1
10 | C[C@]1(N)CC[C@@H]2CN(c3cccc(C(F)(F)F)n3)C[C@@H]21 [Example 27, (3aR,4S,6aS)-4-methyl-2-[6-(trifluoromethyl)pyridin-2-yl]octahydrocyclopenta[c]pyrrol-4-amine] | 1.8
11 | CCN[C@]1(C)CC[C@@H]2CN(c3cccc(C(F)(F)F)n3)C[C@@H]21 [Example 22, (3aR,4R,6aS)—N-ethyl-4-methyl-2-[6-(trifluoromethyl)pyridin-2-yl]octahydrocyclopenta[c]pyrrol-4-amine] | 5.85
12 | C[C@]1(NCc2ccccc2)CC[C@@H]2CN(c3cccc(C(F)(F)F)n3)C[C@@H]21 [Example 20, (3aR,4S,6aS)—N-benzyl-4-methyl-2-[6-(trifluoromethyl)pyridin-2-yl]octahydrocyclopenta[c]pyrrol-4-amine] | 0.38
13 | O[C@]1(Cc2ccc(F)c(F)c2)CC[C@@H]2CN(c3cccc(C(F)(F)F)n3)C[C@@H]21 [Example 37, (3aR,4S,6aS)-4-(3,4-difluorobenzyl)-2-[6-(trifluoromethyl)pyridin-2-yl]octahydrocyclopenta[c]pyrrol-4-ol] | 3.72
14 | C=C1CC[C@@H]2CN(c3cccc(C(F)(F)F)n3)C[C@H]12 [Example 49, (3aS,6aS)-4-methylene-2-[6-(trifluoromethyl)pyridin-2-yl]octahydrocyclopenta[c]pyrrole] | 24.9
15 | C[C@@]1(O)CC[C@@H]2CN(c3cccc(C(F)(F)F)n3)C[C@@H]21 [Example 33, (3aR,4R,6aS)-4-methyl-2-[6-(trifluoromethyl)pyridin-2-yl]octahydrocyclopenta[c]pyrrol-4-ol] | 8.34
16 | O[C@H]1CC[C@@H]2CN(c3cccc(C(F)(F)F)n3)C[C@@H]21 [Example 31, (3aR,4S,6aS)-2-[6-(trifluoromethyl)pyridin-2-yl]octahydrocyclopenta[c]pyrrol-4-ol] | 9.62
17 | C[C@@]1(NC(=O)c2cccc(F)c2)CC[C@@H]2CN(Cc3ccccc3)C[C@@H]21 [Example 6, N-[(3aR,4R,6aS)-2-benzyl-4-methyloctahydrocyclopenta[c]pyrrol-4-yl]-3-fluorobenzamide] | 17.7

Row | Compound | IC50 [µM]
18 | C[C@]1(NCc2cccc(F)c2)CC[C@@H]2CN(c3cccc(C(F)(F)F)n3)C[C@@H]21 [Example 25, (3aR,4S,6aS)—N-(3-fluorobenzyl)-4-methyl-2-[6-(trifluoromethyl)pyridin-2-yl]octahydrocyclopenta[c]pyrrol-4-amine] | 0.18
19 | C[C@@]1(NCc2ccccc2)CC[C@@H]2CN(c3cccc(C(F)(F)F)n3)C[C@@H]21 [Example 21, (3aR,4R,6aS)—N-benzyl-4-methyl-2-[6-(trifluoromethyl)pyridin-2-yl]octahydrocyclopenta[c]pyrrol-4-amine] | 1.03
20 | C[C@@]1(NC(=O)c2ccccc2)CC[C@@H]2CN(c3cccc(C(F)(F)F)n3)C[C@@H]21 [Example 14, N-{(3aR,4R,6aS)-4-methyl-2-[6-(trifluoromethyl)pyridin-2-yl]octahydrocyclopenta[c]pyrrol-4-yl}benzamide] | 2.14
21 | FC(F)(F)c1cccc(N2C[C@H]3CC[C@H](n4cnc5ccccc54)[C@H]3C2)n1 [Example 60, 1-{(3aR,4S,6aS)-2-[6-(trifluoromethyl)pyridin-2-yl]octahydrocyclopenta[c]pyrrol-4-yl}-1H-benzimidazole] | 1.96
22 | CC(=O)N[C@]1(C)CC[C@@H]2CN(Cc3ccccc3)C[C@@H]21 [Example 4, N-[(3aR,4R,6aS)-2-benzyl-4-methyloctahydrocyclopenta[c]pyrrol-4-yl]acetamide] | > 30
23 | O[C@]1(c2cccc(F)c2)CC[C@@H]2CN(c3cccc(C(F)(F)F)n3)C[C@@H]21 [Example 36, (3aR,4R,6aS)-4-(3-fluorophenyl)-2-[6-(trifluoromethyl)pyridin-2-yl]octahydrocyclopenta[c]pyrrol-4-ol] | 6.13
24 | O[C@H]1[C@H]2CN(c3cccc(C(F)(F)F)n3)C[C@H]2C[C@@H]1n1ccnc1 [Example 69, (3aR,4S,5S,6aS)-5-(1H-imidazol-1-yl)-2-[6-(trifluoromethyl)pyridin-2-yl]octahydrocyclopenta[c]pyrrol-4-ol] | 9.15
25 | O[C@H]1[C@H]2CN(c3cccc(C(F)(F)F)n3)C[C@H]2C[C@H]1n1ccnc1 [Example 68, (3aR,4S,5R,6aS)-5-(1H-imidazol-1-yl)-2-[6-(trifluoromethyl)pyridin-2-yl]octahydrocyclopenta[c]pyrrol-4-ol] | 10.8
26 | CC(C)(C)OC(=O)N1C[C@H]2CC[C@H](C(=O)Nc3cccc(F)c3)[C@H]2C1 [Example 54] | 11.6
27 | C[C@]1(NC(=O)c2ccccc2)CC[C@@H]2CN(Cc3ccccc3)C[C@@H]21 [Example 3, N-[(3aR,4S,6aS)-2-benzyl-4-methyloctahydrocyclopenta[c]pyrrol-4-yl]benzamide] | 12
28 | Fc1cccc(O[C@H]2CC[C@@H]3CN(c4cccc(C(F)(F)F)n4)C[C@@H]32)c1 [Example 44, (3aR,4S,6aS)-4-(3-fluorophenoxy)-2-[6-(trifluoromethyl)pyridin-2-yl]octahydrocyclopenta[c]pyrrole] | 6.01
29 | C[C@@]1(NC(=O)c2ccccc2)CC[C@@H]2CNC[C@@H]21 [Example 8, N-[(3aR,4R,6aS)-4-methyloctahydrocyclopenta[c]pyrrol-4-yl]benzamide] | 26.3
30 | CCN[C@@]1(C)CC[C@@H]2CN(c3cccc(C(F)(F)F)n3)C[C@@H]21 [Example 23, (3aR,4S,6aS)—N-ethyl-4-methyl-2-[6-(trifluoromethyl)pyridin-2-yl]octahydrocyclopenta[c]pyrrol-4-amine] | 1.76
31 | CC(C)O[C@H]1CC[C@@H]2CN(c3cccc(C(F)(F)F)n3)C[C@@H]21 [Example 42, (3aR,4S,6aS)-4-isopropoxy-2-[6-(trifluoromethyl)pyridin-2-yl]octahydrocyclopenta[c]pyrrole] | 3.82
32 | C[C@@]1(NC(=O)c2cccc(F)c2)CC[C@@H]2CN(c3cccc(C(F)(F)F)n3)C[C@@H]21 [Example 18, 3-fluoro-N-{(3aR,4R,6aS)-4-methyl-2-[6-(trifluoromethyl)pyridin-2-yl]octahydrocyclopenta[c]pyrrol-4-yl}benzamide] | 1.5
33 | CC(=O)N[C@]1(C)CC[C@@H]2CN(c3cccc(C(F)(F)F)n3)C[C@@H]21 [Example 16, N-{(3aR,4R,6aS)-4-methyl-2-[6-(trifluoromethyl)pyridin-2-yl]octahydrocyclopenta[c]pyrrol-4-yl}acetamide] | 6.44
